Reference: US11338004B2, “Composition for preventing or treating cranial nerve disease comprising fomes fomentarius extract, fraction thereof, or compound isolated therefrom as active ingredient” (priority 2015, dated 2022)

Tests used:
Format in all cases: cell-based, mouse
Parameters in all cases: unit not given here
IL-1β = IL-1β in LPS-treated BV2 cells
Protocol: (§1) A mouse BV2 cell line was stored and maintained in a humidified incubator at 37° C. under a 5% CO2 condition using a DMEM culture medium supplemented with 10% FBS, 100 U/ml of penicillin and 100 μg/ml of streptomycin, was trypsinized, and was subcultured.
(§2) BV2 cells were placed in a 6-well plate at 7.5×10^5 cells/well, and stabilized at 37° C. and 5.0% CO2 for 12 hours. After that, LPS and the Fomes fomentarius CHCl3 fractions, the nonadecanone (2-Nonadecanone) or the docosenol (cis-13-Docosenol) compounds were placed according to groups and were incubated for 1 hour. The cell culture was collected and used for cytokine analysis. All the cell culture was removed, and then 1 ml of dPBS was dispensed to each well to wash and remove the wells. 200 μl of the lysis buffer was dispensed per well and the cells attached to the bottom of the well were removed with a cell scriper, and then were slowly mixed and reacted for […] on ice at 4° C. The cells were removed with a scriper again and all the lysis solution was collected. The collected lysis solution was centrifuged at 15,000 rpm for 15 minutes at 4° C. so that only the supernatant was collected. In order to plot standard curves for protein quantification, a standard BSA solution ([…]) and a dilution were prepared in which bradford solution and D.W. were diluted with 4:1. After the bradford dilution was dispensed in each 200 μl to 96-well, the standard BSA solution and the cell lysis supernatant were dispersed in a volume of 10 μl per well, and then they were mixed by pipetting. After 10 minutes, the protein was quantitated by measuring the absorbance at 595 nm in a reader. The subsequent procedures were carried out in the same manner as in the quantitative analysis of the protein of Example 3-3.

IL-6 = IL-6 in LPS-treated BV2 cells
Protocol: as §1, §2

TNF-α = TNF-α in LPS-treated BV2 cells
Protocol: as §1, §2

SMILES	IL-1β level (IL-1β; 5 μg/ml)	IL-1β level (IL-1β; 20 μg/ml)	IL-1β level (IL-1β; 50 μg/ml)	IL-1β level (IL-1β; 100 μg/ml)	IL-6 level (IL-6; 5 μg/ml)	IL-6 level (IL-6; 20 μg/ml)	IL-6 level (IL-6; 50 μg/ml)	IL-6 level (IL-6; 100 μg/ml)	TNF-α level (TNF-α; 5 μg/ml)	TNF-α level (TNF-α; 20 μg/ml)	TNF-α level (TNF-α; 50 μg/ml)	TNF-α level (TNF-α; 100 μg/ml)
CCCCCCCC/C=C\CCCCCCCCCCCCO [docosenol, cis-13-Docosenol]	65.15±7.6	59.12±6.1	50.55±4.2	48.19±5.8	301.56±7.6	249.35±10.1	171.68±5.5	138.51±6.8	60.12±7.4	40.58±6.2	28.15±4.1	22.87±5.6
CCCCCCCCCCCCCCCCCC(C)=O [nonadecanone, 2-Nonadecanone]	70.12±4.8	65.56±5.1	58.11±6.5	43.66±3.4	451.25±6.9	441.61±7.1	389.64±10.1	351.85±8.7	79.12±4.1	70.24±5.0	59.56±6.2	50.47±3.1
